Here are results for 21 compounds from US20240150334A1, “HSD17B13 INHIBITORS AND/OR DEGRADERS” (Pfizer Inc., priority 2022, published 2024).

Molecules are shown by their SMILES. Counter-ions that a name gives are not always drawn.

wild type human HSD17B13, sequence (Q7Z5P4 20-300): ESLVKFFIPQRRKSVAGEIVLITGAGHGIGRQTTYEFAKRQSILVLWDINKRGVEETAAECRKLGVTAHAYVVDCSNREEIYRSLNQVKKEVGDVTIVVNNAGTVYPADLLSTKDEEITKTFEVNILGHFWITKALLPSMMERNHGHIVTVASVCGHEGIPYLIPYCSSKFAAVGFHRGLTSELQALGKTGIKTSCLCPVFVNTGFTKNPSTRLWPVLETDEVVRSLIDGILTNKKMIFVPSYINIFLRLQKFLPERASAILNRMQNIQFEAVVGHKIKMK

The target of this experiment is wild type human HSD17B13 (Homo sapiens (Human), UniProt Q7Z5P4). The experiment in a line: HEK_Beta-Est LCMS_IC50_Tekcel, whole-cell HEK-HSD17B13 inhibition assay, estrone production by LCMS. The format is cell-based. Conditions: geometric mean, HEK cells stably expressing wild type human HSD17B13, 25 μM FAC beta-estradiol, read-out: HEK_Beta-Est LCMS_IC50—Tekcel GMean IC50. How it is done:
HEK_Beta-Est LCMS_IC50_Tekcel
Inhibition potency of test compounds was determined using a whole-cell HEK-HSD17B13 inhibition assay, utilizing a LCMS readout.
HSD17B13 uses the oxidized form of nicotinamide adenine dinucleotide (NAD+) as a cofactor during metabolism of beta-estradiol (substrate), converting NAD+ to the reduced form (NADH) and beta-estradiol to its product (estrone). Estrone production is quantified by LCMS, and used as a measure of HSD17B13 enzyme activity.
([…]: 5% CO2). […] Growth media was then removed from the cell plates and replaced with 10 μL of 2×FAC test compound, and incubated for 1 hour (with lid) at 37° C. […] The reaction was incubated for 2 hours (with lid) at 37° C. […] Amount of product (estrone) was then quantified by LCMS. Data expressed as product area ratio (PAR) were then normalized to control wells using Activity Base (IDBS). Zero percent effect (ZPE) was defined as PAR generated from uninhibited HSD17B13 (vehicle control).
For orientation: IC50 means the concentration that inhibits the measured activity by half. For `COc1cncc(-c2ccc3cn([C@H]4CC[C@H](CNC(=O)c5cc(F)c(O)c(F)c5)CC4)nc3c2)c1` [Example 120, 3,5-difluoro-4-hydroxy-N-({(1r,4r)-4-[6-(5-methoxypyridin-3-yl)-2H-indazol-2-yl]cyclohexyl}methyl) benzamide, trifluoroacetate salt], the IC50 came to 250 nM.

With `Cc1cncc(-c2ccc3cn([C@H]4CC[C@H](CNC(=O)c5cc(F)c(O)c(F)c5)CC4)nc3c2)c1` [Example 90, 3,5-difluoro-4-hydroxy-N-({(1r,4r)-4-[6-(5-methylpyridin-3-yl)-2H-indazol-2-yl]cyclohexyl}methyl) benzamide, trifluoroacetate salt], the IC50 amounted to 200 nM.

Turning to `O=C(NC[C@H]1CC[C@H](n2cc3ccc(-n4cccn4)cc3n2)CC1)c1cc(F)c(O)c(F)c1F` [Example 158, 2,3,5-trifluoro-4-hydroxy-N-({(1r,4r)-4-[6-(1H-pyrazol-1-yl)-2H-indazol-2-yl]cyclohexyl}methyl) benzamide, trifluoroacetate salt], the IC50 is 190 nM. For the compound `COc1cccc(-c2ccc3cn([C@H]4CC[C@H](CNC(=O)c5cc(F)c(O)c(F)c5)CC4)nc3c2)n1` [Example 116, 3,5-difluoro-4-hydroxy-N-({(1r,4r)-4-[6-(6-methoxy-pyridin-2-yl)-2H-indazol-2-yl]cyclohexyl}methyl) benzamide, trifluoroacetate salt], the IC50 came out at 190 nM. On to `O=C(NC[C@H]1CC[C@H](n2cc3ccc(-c4cccn5ncnc45)cc3n2)CC1)c1cc(F)c(O)c(F)c1` [Example 113, 3,5-difluoro-4-hydroxy-N-({(1r,4r)-4-[6-([1,2,4]triazolo[1,5-a]pyridin-8-yl)-2H-indazol-2-yl]cyclohexyl}methyl) benzamide, trifluoroacetate salt], for which the IC50 was determined as 320 nM. To `O=C(NC[C@H]1CC[C@H](n2cc3ccc(-c4ccsn4)cc3n2)CC1)c1cc(F)c(O)c(F)c1` [Example 98, 3,5-difluoro-4-hydroxy-N-({(1r,4r)-4-[6-(1,2-thiazol-3-yl)-2H-indazol-2-yl]cyclohexyl}methyl) benzamide] belongs 110 nM. Take `O=C(NC[C@H]1CC[C@H](n2cc3ccc(-c4ccns4)cc3n2)CC1)c1cc(F)c(O)c(F)c1` [Example 83, 3,5-difluoro-4-hydroxy-N-({(1r,4r)-4-[6-(1,2-thiazol-5-yl)-2H-indazol-2-yl]cyclohexyl}methyl) benzamide]: the IC50 is 94 nM. As for `Cn1cc(-c2ccc3cn([C@H]4CC[C@H](CNC(=O)c5cc(F)c(O)c(F)c5)CC4)nc3c2)ccc1=O` [Example 104, 3,5-difluoro-4-hydroxy-N-({(1r,4r)-4-[6-(1-methyl-6-oxo-1,6-dihydropyridin-3-yl)-2H-indazol-2-yl]cyclohexyl}methyl) benzamide], the figure is 370 nM; as for `Cn1nc(-c2noc([C@]34CC[C@](CNC(=O)c5cc(F)c(O)c(F)c5F)(CC3)CC4)n2)ccc1=O` [Example 168, 2,3,5-trifluoro-4-hydroxy-N-({4-[3-(1-methyl-6-oxo-1,6-dihydropyridazin-3-yl)-1,2,4-oxadiazol-5-yl]bicyclo[2.2.2]octan-1-yl}methyl) benzamide], 380 nM; as for `O=C(NC[C@H]1CC[C@H](n2cc3ccc(-c4cnn(C(CO)CCl)c4)cc3n2)CC1)c1cc(F)c(O)c(F)c1` (stereo partly drawn) [Example 164, N-{[(1r,4r)-4-{6-[1-(1-chloro-3-hydroxypropan-2-yl)-1H-pyrazol-4-yl]-2H-indazol-2-yl}cyclohexyl]methyl}-3,5-difluoro-4-hydroxybenzamide, trifluoroacetate salt], 230 nM. As for `O=C(NC[C@]12CC[C@](n3cc4ccc(Br)cc4n3)(CC1)CC2)c1cc(F)c(O)c(F)c1` [Example 205, N-{[4-(6-bromo-2H-indazol-2-yl)bicyclo[2.2.2]octan-1-yl]methyl}-3,5-difluoro-4-hydroxybenzamide], the figure is 220 nM; as for `Cc1ncc(-c2ccc3cn([C@H]4CC[C@H](CNC(=O)c5cc(F)c(O)c(F)c5)CC4)nc3c2)s1` [Example 88, 3,5-difluoro-4-hydroxy-N-({(1r,4r)-4-[6-(2-methyl-1,3-thiazol-5-yl)-2H-indazol-2-yl]cyclohexyl}methyl)benzamide], 170 nM; as for `O=C(NC[C@H]1CC[C@H](n2cc3ccc(-c4csc5cncn45)cc3n2)CC1)c1cc(F)c(O)c(F)c1` [Example 84, 3,5-difluoro-4-hydroxy-N-({(1r,4r)-4-[6-(imidazo[5,1-b][1,3]thiazol-3-yl)-2H-indazol-2-yl]cyclohexyl}methyl) benzamide, trifluoroacetate salt], 390 nM. `Cc1cc(-c2ccc3cn([C@H]4CC[C@H](CNC(=O)c5cc(F)c(O)c(F)c5)CC4)nc3c2)ccn1` [Example 81, 3,5-difluoro-4-hydroxy-N-({(1r,4r)-4-[6-(2-methylpyridin-4-yl)-2H-indazol-2-yl]cyclohexyl}methyl) benzamide, trifluoroacetate salt]: the IC50 was 120 nM. As for `O=C(NC[C@H]1CC[C@H](n2cc3ccc(-c4ncc(C(F)F)s4)cc3n2)CC1)c1cc(F)c(O)c(F)c1` [Example 91, N-{[(1r,4r)-4-{6-[5-(difluoromethyl)-1,3-thiazol-2-yl]-2H-indazol-2-yl}cyclohexyl]methyl}-3,5-difluoro-4-hydroxybenzamide], the figure is 280 nM; as for `COc1nc(-c2ccc3cn([C@H]4CC[C@H](CNC(=O)c5cc(F)c(O)c(F)c5)CC4)nc3c2)nn1C` [Example 86, 3,5-difluoro-4-hydroxy-N-({(1r,4r)-4-[6-(5-methoxy-1-methyl-1H-1,2,4-triazol-3-yl)-2H-indazol-2-yl]cyclohexyl}methyl) benzamide], 270 nM.

For the compound `COc1ccnc(-c2ccc3cn([C@H]4CC[C@H](CNC(=O)c5cc(F)c(O)c(F)c5)CC4)nc3c2)n1` [Example 95, 3,5-difluoro-4-hydroxy-N-({(1r,4r)-4-[6-(4-methoxypyrimidin-2-yl)-2H-indazol-2-yl]cyclohexyl}methyl)benzamide], the IC50 stood at 240 nM. As for `O=C(NC[C@H]1CC[C@H](n2cc3ccc(-c4cncs4)cc3n2)CC1)c1cc(F)c(O)c(F)c1` [Example 96, 3,5-difluoro-4-hydroxy-N-({(1r,4r)-[6-(1,3-thiazol-5-yl)-2H-indazol-2-yl]cyclohexyl}methyl)benzamide], the figure is 85 nM; as for `O=C(NC[C@H]1CC[C@H](n2cc3ccc(-c4csc(C5CC5)n4)cc3n2)CC1)c1cc(F)c(O)c(F)c1` [Example 85, N-({(1r,4r)-4-[6-(2-cyclopropyl-1,3-thiazol-4-yl)-2H-indazol-2-yl]cyclohexyl}methyl)-3,5-difluoro-4-hydroxybenzamide], 180 nM. Regarding `O=C(NC[C@]12CC[C@](n3cc4ccc(-c5ncccn5)cc4n3)(CC1)CC2)c1cc(F)c(O)c(F)c1` [Example 207, 3,5-difluoro-4-hydroxy-N-({4-[6-(pyrimidin-2-yl)-2H-indazol-2-yl]bicyclo [2.2.2]octan-1-yl}methyl)benzamide], the IC50 is 140 nM. For `Cc1nnc(-c2ccc3cn([C@H]4CC[C@H](CNC(=O)c5cc(F)c(O)c(F)c5)CC4)nc3c2)s1` [Example 102, 3,5-difluoro-4-hydroxy-N-({(1r,4r)-4-[6-(5-methyl-1,3,4-thiadiazol-2-yl)-2H-indazol-2-yl]cyclohexyl}methyl) benzamide, ammonium salt], the IC50 came out at 200 nM.
